The test system of assay [1] is Hedgehog pathway activation (GLi-luciferase reporter) in Shh Light II reporter cells. Kind of assay: Hedgehog pathway activation on Shh Light II reporter cells measured by luciferase activity. It is filed as cell-based. The settings on record: Mus musculus, Shh Light II. Put shortly: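 Shh Light II reporter cells carrying a hedgehog-responsive GLi-luciferase reporter were stimulated either with 500 nM SAG, a direct Smoothened agonist, or with conditioned media containing human Sonic Hedgehog (hShh). Test compounds were evaluated for blocking this pathway activation, quantified by luciferase activity. Cell viability was monitored in parallel with the Celltiter-Blue® assay.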

Assay [2] concerns Hedgehog pathway activation on 10T1/2/Smo#3 cells (C3H10T1/2 cells transfected with human Smoothened receptor). Briefly: Hedgehog pathway activation on 10T1/2/Smo#3 cells measured by ALP activity. The assay is classed as cell-based. The settings on record: Mus musculus, C3H 10T1/2, 10T1/2/Smo#3 cells. In a few lines:
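Inhibition of alkaline phosphatase induction, read fluorometrically from 4-methylumbelliferyl phosphate conversion, gave IC50 values; CellTiter-Blue tracked viability in parallel. Cells were the human Smo-transfected 10T1/2/Smo#3 pool, stimulated by 10-20% hShh conditioned medium or the Smo agonist SAG (500 nM).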

The mark [3] stands for this setting: SAG activation (500 nM SAG), read-out: Shh Light II luciferase activity (SAG activation).
The mark [4] stands for this setting: hShh activation, read-out: Shh (IC50, inhibition of Hedgehog pathway activation).
Setting [5] is: hShh activation, read-out: Shh Light II luciferase activity (hShh activation).
Setting [6] is: hShh activation, ALP activity, read-out: 10T1/2/Smo#3 ALP activity (hShh Activation).
[7] abbreviates: measured by ALP activity, read-out: ALP (IC50, inhibition of Hedgehog pathway activation).

pIC50: −log10 of the molar value. Like-named read-outs stand apart in the source and are kept apart here. Bounds are passed on as bounds.

On to `CC(C)(C)C(=O)Nc1cc(-c2cn3nc(-c4cncc5ccccc45)ccc3n2)ccc1C(F)(F)F` [Example 385, N-(5-(6-(isoquinolin-4-yl)imidazo[1,2-b]pyridazin-2-yl)-2-(trifluoromethyl)phenyl)pivalamide], for which the pIC50 in assay [1] (setting [3]) was 5.52 to 6.52; in assay [1] (setting [4]), 6.11; in assay [1] (setting [5]), 5.52 to 6.52; in assay [2] (setting [6]), 5.52 to 6.52; in assay [2] (setting [7]) it was 5.86.
Turning to `Cc1ccc(-c2cn3nc(-c4cc(O)ccc4C(F)(F)F)ccc3n2)cc1NC(=O)C(C)(C)C` [Example 399, N-(5-(6-(5-hydroxy-2-(trifluoromethyl)phenyl)imidazo[1,2-b]pyridazin-2-yl)-2-methylphenyl)pivalamide], the pIC50 was greater than 6.52 in assay [1] (setting [3]); 6.98 in assay [1] (setting [4]); greater than 6.52 in assay [1] (setting [5]); greater than 6.52 in assay [2] (setting [6]); 6.76 in assay [2] (setting [7]).
As for `CC(C)(C)C(=O)Nc1cc(-c2cn3nc(-c4cccnc4C(F)(F)F)ccc3n2)ccc1F` [Example 658, N-(2-fluoro-5-(6-(2-(trifluoromethyl)pyridin-3-yl)imidazo[1,2-b]pyridazin-2-yl)phenyl)pivalamide], the values for the pIC50 in assay [1] (setting [4]) and in assay [2] (setting [7]) were 7.57 and 7.07, respectively.
The corresponding values for `Cc1c(-c2cccnc2F)nn2cc(-c3ccc(C(F)(F)F)c(NC(=O)C(C)(C)C)c3)nc2c1C` [Example 199, N-(5-(6-(2-fluoropyridin-3-yl)-7,8-dimethylimidazo[1,2-b]pyridazin-2-yl)-2-(trifluoromethyl)phenyl)pivalamide] are 6.47 and 6.95.
As for `CC(C)(C)C(=O)Nc1cc(-c2cn3cc(Cl)ccc3n2)ccc1C(F)(F)F` [Example 81, N-(5-(6-chloroimidazo[1,2-a]pyridin-2-yl)-2-(trifluoromethyl)phenyl)pivalamide], the pIC50 was 5.52 to 6.52 in assay [1] (setting [3]); 5.97 in assay [1] (setting [4]); 5.52 to 6.52 in assay [1] (setting [5]); 5.52 to 6.52 in assay [2] (setting [6]); 5.61 in assay [2] (setting [7]).
Regarding `O=C(Nc1cc(-c2cn3nc(-c4cccnc4C(F)(F)F)ccc3n2)ccc1F)N1CCCC1` [Example 686, N-(2-fluoro-5-(6-(2-(trifluoromethyl)pyridin-3-yl)imidazo[1,2-b]pyridazin-2-yl)phenyl)pyrrolidine-1-carboxamide], the pIC50 in assay [1] (setting [4]) was 6.83; in assay [2] (setting [7]) it was 6.66.
The matching figures for `COc1ccc2nc(-c3ccc(C)c(NC(=O)C(C)(C)C)c3)cn2n1` [Example 94, N-(5-(6-methoxyimidazo[1,2-b]pyridazin-2-yl)-2-methylphenyl)pivalamide]: 6.21 and 5.82.
Turning to `CN[C@H]1CCN(c2ccc3nc(-c4ccc(C)c(NC(=O)C(C)(C)C)c4)cn3n2)C1` [Example 392, (S)-N-(2-methyl-5-(6-(3-(methylamino)pyrrolidin-1-yl)imidazo[1,2-b]pyridazin-2-yl)phenyl)pivalamide], the pIC50 is 7.11 in assay [1] (setting [4]) and 7.03 in assay [2] (setting [7]).
The corresponding values for `CCc1ccc(-c2cn3nc(-c4ccccc4C#N)ccc3n2)cc1NC(=O)C(C)(C)C` [Example 296, N-(5-(6-(2-cyanophenyl)imidazo[1,2-b]pyridazin-2-yl)-2-ethylphenyl)pivalamide] are 6.51 and 6.65.
As for `CC(C)(C)C(=O)Nc1cc(-c2cn3ccc(Cl)cc3n2)ccc1C(F)(F)F` [Example 82, N-(5-(7-chloroimidazo[1,2-a]pyridin-2-yl)-2-(trifluoromethyl)phenyl)pivalamide], the pIC50 in assay [1] (setting [4]) was 5.22; in assay [2] (setting [7]), less than 5.00.
With `CCC(C)(C)C(=O)Nc1cc(-c2cn3nc(-c4cccnc4C(F)(F)F)ccc3n2)ccc1Cl` [Example 664, N-(2-chloro-5-(6-(2-(trifluoromethyl)pyridin-3-yl)imidazo[1,2-b]pyridazin-2-yl)phenyl)-2,2-dimethylbutanamide], the figures for the pIC50 in assay [1] (setting [4]) and in assay [2] (setting [7]) were 7.62 and 6.98, respectively.
The matching figures for `Cc1ccc(-c2cn3nc(-c4ccc(C(=N)N)cc4C(F)(F)F)ccc3n2)cc1NC(=O)C(C)(C)C` [compound 543, N-(5-(6-(4-carbamimidoyl-2-(trifluoromethyl)phenyl)imidazo[1,2-b]pyridazin-2-yl)-2-methylphenyl)pivalamide]: 8.40 and 8.15.
The matching figures for `CC(C)(C)C(=O)Nc1cc(-c2cn3nc(-c4cccnc4F)ccc3n2)ccc1C(F)(F)F` [Example 176, N-(5-(6-(2-fluoropyridin-3-yl)imidazo[1,2-b]pyridazin-2-yl)-2-(trifluoromethyl)phenyl)pivalamide]: 7.10 and 7.01.
In the case of `CCN(CC)S(=O)(=O)c1cc(-c2cn3nc(-c4cccnc4C(F)(F)F)ccc3n2)ccc1Cl` [Example 703, 2-chloro-N,N-diethyl-5-(6-(2-(trifluoromethyl)pyridin-3-yl)imidazo[1,2-b]pyridazin-2-yl)benzenesulfonamide], the pIC50 in assay [1] (setting [4]) is 5.80; in assay [2] (setting [7]), less than 5.00.
The matching figures for `CC(C)(C)C(=O)Nc1cc(-c2cn3nc(-c4ccccc4C(F)(F)F)ccc3n2)ccc1C(F)(F)F` [Example 209, N-(2-(trifluoromethyl)-5-(6-(2-(trifluoromethyl)phenyl)imidazo[1,2-b]pyridazin-2-yl)phenyl)pivalamide]: 7.14 and 7.01.
With `COc1ccc2nc(-c3ccc(C)c(NC(=O)C(C)(C)C)c3)c(C)n2n1` [Example 121, N-(5-(6-methoxy-3-methylimidazo[1,2-b]pyridazin-2-yl)-2-methylphenyl)pivalamide], the pIC50 is 4.52 to 5.52 in assay [1] (setting [3]); 5.70 in assay [1] (setting [4]); 5.52 to 6.52 in assay [1] (setting [5]); 5.52 to 6.52 in assay [2] (setting [6]); 5.73 in assay [2] (setting [7]).
As for `CC(C)(C)C(=O)Nc1cc(-c2cn3nc(-c4cc(C(F)(F)F)ccc4F)ccc3n2)ccc1C(F)(F)F` [Example 207, N-(5-(6-(2-fluoro-5-(trifluoromethyl)phenyl)imidazo[1,2-b]pyridazin-2-yl)-2-(trifluoromethyl)phenyl)pivalamide], the pIC50 in assay [1] (setting [3]) was greater than 6.52; in assay [1] (setting [4]), 7.37; in assay [1] (setting [5]) it was greater than 6.52; in assay [2] (setting [6]) it was greater than 6.52; in assay [2] (setting [7]) it was 7.37.
`Cc1ccc(-c2cn3nc(N4CC[C@H](O)C4)ccc3n2)cc1NC(=O)C(C)(C)C` [Example 346, (S)-N-(5-(6-(3-hydroxypyrrolidin-1-yl)imidazo[1,2-b]pyridazin-2-yl)-2-methylphenyl)pivalamide]: the pIC50 in assay [1] (setting [3]) is greater than 6.52; in assay [1] (setting [4]), 7.36; in assay [1] (setting [5]), greater than 6.52; in assay [2] (setting [6]), greater than 6.52; in assay [2] (setting [7]) it was 7.64.
As to `COc1ncc(-c2ccc3nc(-c4ccc(C(F)(F)F)c(NC(=O)C(C)(C)C)c4)cn3n2)cn1` [Example 373, N-(5-(6-(2-methoxypyrimidin-5-yl)imidazo[1,2-b]pyridazin-2-yl)-2-(trifluoromethyl)phenyl)pivalamide], the pIC50 is 6.03 in assay [1] (setting [4]) and 6.27 in assay [2] (setting [7]).
Consider `Cc1c(Cl)nn2cc(-c3ccc(C(F)(F)F)c(NC(=O)C(C)(C)C)c3)nc2c1C` [Example 198, N-(5-(6-chloro-7,8-dimethylimidazo[1,2-b]pyridazin-2-yl)-2-(trifluoromethyl)phenyl)pivalamide], for which the pIC50 in assay [1] (setting [3]) is 4.52 to 5.52; in assay [1] (setting [4]), 5.78; in assay [1] (setting [5]), 5.52 to 6.52; in assay [2] (setting [6]), 5.52 to 6.52; in assay [2] (setting [7]) it was 5.71.
As for `CN(C)S(=O)(=O)c1cc(-c2cn3nc(-c4cccnc4C(F)(F)F)ccc3n2)ccc1Cl` [Example 700, 2-chloro-N,N-dimethyl-5-(6-(2-(trifluoromethyl)pyridin-3-yl)imidazo[1,2-b]pyridazin-2-yl)benzenesulfonamide], the pIC50 in assay [1] (setting [4]) is 5.60; in assay [2] (setting [7]), less than 5.00.
The corresponding values for `CN(C)c1cccc(-c2ccc3nc(-c4ccc(C(F)(F)F)c(NC(=O)C(C)(C)C)c4)cn3n2)c1` [Example 256, N-(5-(6-(3-(dimethylamino)phenyl)imidazo[1,2-b]pyridazin-2-yl)-2-(trifluoromethyl)phenyl)pivalamide] are 5.94 and 6.35.
Consider `Cc1ccc(-c2cn3nc(-c4cccnc4C(F)(F)F)ccc3n2)cc1NC(=O)C(C)(C)C` [Example 284, N-(2-methyl-5-(6-(2-(trifluoromethyl)pyridin-3-yl)imidazo[1,2-b]pyridazin-2-yl)phenyl)pivalamide], for which the pIC50 in assay [1] (setting [3]) is greater than 6.52; in assay [1] (setting [4]), 7.24; in assay [1] (setting [5]), greater than 6.52; in assay [2] (setting [6]), greater than 6.52; in assay [2] (setting [7]), 7.54.
For the molecule `CCOc1ccc2nc(-c3ccc(C(F)(F)F)c(NC(=O)c4cccnc4)c3)cn2n1` [Example 193, N-(5-(6-ethoxyimidazo[1,2-b]pyridazin-2-yl)-2-(trifluoromethyl)phenyl)nicotinamide], the pIC50 in assay [1] (setting [4]) is 5.11; in assay [2] (setting [7]) it was 5.63.
The corresponding values for `CCOc1ccc2nc(-c3ccc(C(F)(F)F)c(NC(=O)C(C)C)c3)cn2n1` [Example 185, N-(5-(6-ethoxyimidazo[1,2-b]pyridazin-2-yl)-2-(trifluoromethyl)phenyl)isobutyramide] are 5.75 and 5.78.

The values are drawn from patent publication US8871767B2, “2-arylimidazo[1,2-B]pyridazine, 2-phenylimidazo[1,2-A]pyridine, and 2-phenylimidazo[1,2-A]pyrazine derivatives” (Hengrui (USA) Ltd., priority 2010, dated 2014).
